Read-outs that look alike come from different tables or passages of the source.
How the values were obtained:
[1] = test system: U87 cells; test: Cell viability, Alamar Blue, 7-day incubation, U87; format: cell-based; conditions: Homo sapiens, U-87 MG, 168 h, MGMT −, error SEM
Method: (§1) Anticancer activity of C8 substituted imidazotetrazines. With a suite of imidazotetrazines in hand, each compound was evaluated against a panel of human GBM cell lines (Table 1a, Table 1b).

[2] = test system: D54 cells; test: Cell viability, Alamar Blue, 7-day incubation, D54; format: cell-based; conditions: Homo sapiens, D54, 168 h, MGMT −, error SEM
Method: as §1

[3] = test system: T98G cells; test: Cell viability, Alamar Blue, 7-day incubation, T98G; format: cell-based; conditions: Homo sapiens, 168 h, MGMT +, error SEM
Method: as §1

[4] = test system: Br23c GBM oncosphere cell line; test: Cell viability, Alamar Blue, 7-day, Br23c GBM oncosphere line; format: cell-based; conditions: Homo sapiens, 168 h, error SEM, read-out: 7-day IC50 MGMT − Br23C
[5] = Mouse liver microsome stability assay; format: in vitro ADME; conditions: for metabolic stability in words: mouse liver microsomes, 2 hours; for Stability (2 h, Microsomes): percentage remaining relative to t0, error SEM, n ≥ 2
Method: (§2) Liver microsome stability.
(§3) Mouse Liver Microsome Stability Assay. A mixture of PBS (pH 7.4), NADPH regenerating system solution A (Corning Life Sciences), and NADPH regenerating system solution B (Corning Life Sciences) was incubated at 37° C. in a shaking incubator for 5 min. Next, compound was added in DMSO (final concentration 50 μM, 0.5% DMSO) before ice-cold mouse liver microsomes (Thermo Fisher, male CD-1 mice, pooled) were added (final protein concentration of 1 mg/mL). An aliquot was immediately removed, quenched with an equal volume of 100 μM internal standard and 0.5% hydrochloric acid in ice-cold acetonitrile, and centrifuged at 13,000 rcf for 3 min. The supernatant was diluted 1:5 in ddH2O and analyzed by LC-MS. The reactions were incubated at 37° C. in a shaking incubator for 2 h. A second aliquot was removed, quenched and diluted as before and analyzed by LC-MS. The ratio of the areas of analyte:internal standard at 2 hours was compared to the ratio at t0 to determine the percentage of compound remaining. Analysis was performed on an Agilent 6230 LC/MS TOF system with a 1.8 μm, 2.1×50 mm Agilent ZORBAX Eclipse Plus C18 column.

[6] = test system: GBM Br23c oncospheres intracranially implanted; test: Intracranial mouse model of GBM (Br23c oncospheres); format: in vivo; conditions: for increase in median survival over TMZ: equimolar to 15 mg/kg TMZ, oral gavage once-per-day, 5×/week, 7 weeks
From the text: FIG. 5. Evaluation of imidazotetrazines in intracranial mouse models of GBM. GBM Br23c oncospheres were intracranially implanted into female athymic nude mice. Treatment was started 5 days post implantation. […] Compounds were formulated in 10% PEG in PBS immediately prior to each treatment. Number of mice per treatment cohort≥5. Survival curves were compared using log-rank test.
in vivo Efficacy Models. Human GBM Br23c stem-like neurosphere cells were intracranially implanted in female athymic nude mice (150,000 cells/mouse). […] Mice were observed daily for any signs of deterioration, neurotoxicity, or movement disorders. They were inspected for signs of pain and distress, as in accordance with the Johns Hopkins Animal Care and Use Guidelines.

[7] = test system: T98G cells; test: cells; format: cell-based; conditions: for IC50: Homo sapiens, 7-day incubation; for Fold Change: between IC50 (+/−) O6BG
Method: FIG. 4. Imidazotetrazines were added to T98G cells with or without 3 h pre-treatment of O6BG (100 μM). IC50 values after 7-day incubation and fold changes between (+/−) O6BG treatments are reported. […] Error is SEM, n≥3. Statistical significance was determined by using a two-sample Student's t-test (two-tailed test, assuming equal variance).

[8] = Stability in the absence of microsomes (microsomes replaced with PBS); format: physicochemical; conditions: liver microsomes replaced with PBS, percentage remaining relative to t0
Method: as §2, §3

[9] = Assessment of hematological toxicity in vivo
Method: Assessment of hematological toxicity. […] Both lymphocyte (FIG. 3b) and neutrophil (FIG. 8a) concentrations were decreased in TMZ-treated mice. […] Total WBC, lymphocyte, and neutrophil counts for mice treated with these compounds were equivalent to those of control mice.
Assessment of Hematological Toxicity. Male CD-1 IGS mice (n=4 mice/group) were administered a single dose of 125 mg/kg compound intravenously. Imidazotetrazines were formulated with SBEβCD in sterile water immediately prior to injection. Seven days post-treatment, mice were humanely sacrificed and whole blood was collected for assessment of total white blood cells, lymphocytes, neutrophils, platelets, and red blood cells.

[10] = Hydrolytic stability in buffered saline (HPLC assay); conditions: saline at pH 7.0, 7.4, and 8.0, 2 h at 37° C.
Method: Hydrolytic stability of C8 substituted imidazotetrazines. […] A HPLC assay was developed to quantify the fraction of intact prodrug remaining in solution after 2 hours at pH 7.4, 37° C.

[11] = Table 1a, 7 days, n ≥ 3, read-out: IC50 U87
[12] = Table 1a, 7 days, read-out: IC50 D54
[13] = Table 1a, 7 days, read-out: IC50 T98G
[14] = 3 h pre-treatment with O6BG (100 μM)
[15] = Table 1b, read-out: 7-day IC50 U87
[16] = Table 1b, read-out: 7-day IC50 D54
[17] = Table 1b, read-out: 7-day IC50 T98G

Row | IC50 [1, 11] | SMILES | IC50 [2, 12] | IC50 [3, 13] | metabolic stability in words [5] | further results
1 | 15 ± 4 µM | Cn1nnc2c(Cl)ncn2c1=O [Compound 19, 8-chloro-3-methylimidazo[5,1-d][1,2,3,5]tetrazin-4(3H)-one] | 21 ± 4 µM | 60 ± 10 µM | generally stable to oxidative metabolism | Stability (2 h, Microsomes) [5]: 91 ± 3%; Stability (2 h, No Microsomes) [8]: 91 ± 1%
2 | 9 ± 1 µM | Cn1nnc2c(-c3ccccc3)ncn2c1=O [Compound 23, 3-methyl-8-phenylimidazo[5,1-d][1,2,3,5]tetrazin-4(3H)-one] | 7 ± 1 µM | 14 ± 1 µM | – | Stability (2 h, Microsomes) [5]: 44 ± 2%; Stability (2 h, No Microsomes) [8]: 103 ± 5%

More lines, now with the values behind:

Row | SMILES | IC50 [1, 11] | IC50 [2, 12] | IC50 [3, 13] | metabolic stability in words [5] | further results
3 | Cn1nnc2c(C(=O)O)ncn2c1=O [Compound 3] | 320 ± 7 µM | 130 ± 8 µM | 321 ± 8 µM | – | –
4 | CNC(=O)c1ncn2c(=O)n(C)nnc12 [Compound 4, N,3-dimethyl-4-oxo-3,4-dihydroimidazo[5,1-d][1,2,3,5]tetrazine-8-carboxamide] | 49 ± 7 µM | 11 ± 1 µM | 580 ± 20 µM | some susceptibility to the effects of the microsomes | IC50 [4]: 6 ± 1 µM; increase in median survival over TMZ [6]: 24%
5 | CN(C)C(=O)c1ncn2c(=O)n(C)nnc12 [Compound 5, N,N,3-trimethyl-4-oxo-3,4-dihydroimidazo[5,1-d][1,2,3,5]tetrazine-8-carboxamide] | 40 ± 20 µM | 12 ± 5 µM | 250 ± 60 µM | some susceptibility to the effects of the microsomes | IC50 [4]: 6 ± 1 µM; IC50 [7, 14]: 25 ± 9 µM; IC50 ([7]; 168 h, without O6BG): 250 ± 60 µM; Fold Change [7]: 10; increase in median survival over TMZ [6]: 46%
6 | CCN(CC)C(=O)c1ncn2c(=O)n(C)nnc12 [Compound 6, N,N-diethyl-3-methyl-4-oxo-3,4-dihydroimidazo[5,1-d][1,2,3,5]tetrazine-8-carboxamide] | 80 ± 30 µM | 13 ± 2 µM | 160 ± 40 µM | – | Stability (2 h, Microsomes) [5]: 81 ± 1%; Stability (2 h, No Microsomes) [8]: 95 ± 2%
7 | CCCCN(CCCC)C(=O)c1ncn2c(=O)n(C)nnc12 [Compound 7, N,N-dibutyl-3-methyl-4-oxo-3,4-dihydroimidazo[5,1-d][1,2,3,5]tetrazine-8-carboxamide] | 27 ± 6 µM | 11 ± 2 µM | 140 ± 20 µM | markedly less stability in liver microsomes | Stability (2 h, Microsomes) [5]: 1 ± 1%; Stability (2 h, No Microsomes) [8]: 98 ± 3%
8 | Cn1nnc2c(C(=O)N3CCCC3)ncn2c1=O [Compound 8, 3-methyl-8-(pyrrolidine-1-carbonyl)imidazo[5,1-d][1,2,3,5]tetrazin-4(3H)-one] | 17 ± 3 µM | 12 ± 4 µM | 186 ± 5 µM | – | –
9 | CCSC(=O)c1ncn2c(=O)n(C)nnc12 [Compound 10, S-ethyl 3-methyl-4-oxo-3,4-dihydroimidazo[5,1-d][1,2,3,5]tetrazine-8-carbothioate] | 64 ± 21 µM | 8 ± 1 µM | 327 ± 4 µM | – | –
10 | CC(=O)c1ncn2c(=O)n(C)nnc12 [Compound 17, 8-acetyl-3-methylimidazo[5,1-d][1,2,3,5]tetrazin-4(3H)-one] | – | 18 ± 1 µM | – | generally stable to oxidative metabolism | IC50 [4]: 5.2 ± 0.3 µM; Cohort weight 7 days Post ([9]; mice, 7 days after single IV dose of 125 mg/kg, error SEM, 4 mice): 31 ± 1 g; Cohort weight Pre-treatment ([9]; mice, prior to single IV dose of 125 mg/kg, error SEM, 4 mice): 30 ± 1 g; myelosuppression / white blood cell effect ([9]; mice, single IV dose 125 mg/kg, complete blood count after 7 days): did not produce myelosuppression; IC50 [7, 14]: 32 ± 4 µM; IC50 ([7]; 168 h, without O6BG): 240 ± 20 µM; Fold Change [7]: 8; extension of median survival past TMZ-treated mice ([6]; 14.9 mg/kg oral once-per-day for 5 total doses): more than 50 days; pH dependence of hydrolysis [10]: pH-dependent
11 | Cn1nnc2c(Br)ncn2c1=O [Compound 18, 8-bromo-3-methylimidazo[5,1-d][1,2,3,5]tetrazin-4(3H)-one] | – | – | – | – | IC50 [1, 15]: 26 ± 7 µM; IC50 [2, 16]: 20 ± 1 µM; IC50 [3, 17]: 60 ± 10 µM
12 | Cn1nnc2c(-c3ccc(F)cc3)ncn2c1=O [Compound 24, 8-(4-fluorophenyl)-3-methylimidazo[5,1-d][1,2,3,5]tetrazin-4(3H)-one] | – | – | – | – | IC50 [1, 15]: 13 ± 2 µM; IC50 [3, 17]: 18 ± 2 µM
13 | Cn1nnc2c(-c3ccc(C(F)(F)F)cc3)ncn2c1=O [Compound 25, 3-methyl-8-(4-(trifluoromethyl)phenyl)imidazo[5,1-d][1,2,3,5]tetrazin-4(3H)-one] | – | – | – | – | IC50 [1, 15]: 16 ± 1 µM; IC50 [3, 17]: > 100 µM
14 | Cn1nnc2c(-c3ccc(Cl)cc3)ncn2c1=O [Compound 26, 8-(4-chlorophenyl)-3-methylimidazo[5,1-d][1,2,3,5]tetrazin-4(3H)-one] | – | – | – | – | IC50 [1, 15]: 9 ± 1 µM; IC50 [2, 16]: 7 ± 1 µM; IC50 [3, 17]: 19 ± 3 µM
15 | Cc1cnc(-c2ncn3c(=O)n(C)nnc23)o1 [Compound 27, 3-methyl-8-(5-methyloxazol-2-yl)imidazo[5,1-d][1,2,3,5]tetrazin-4(3H)-one] | 27 ± 4 µM | 9 ± 1 µM | 100 ± 20 µM | – | Cohort weight 7 days Post ([9]; mouse, in vivo, iv, 125 mg/kg): 31.6 ± 0.3 g; myelosuppression / white blood cell effect ([9]; mouse, in vivo, iv, 125 mg/kg): did not produce myelosuppression; IC50 [7, 14]: 5 ± 1 µM; IC50 ([7]; 168 h, without O6BG): 100 ± 20 µM; Fold Change [7]: 20
16 | Cn1nnc2c(C(N)=S)ncn2c1=O [Compound 28, 3-methyl-4-oxo-3,4-dihydroimidazo[5,1-d][1,2,3,5]tetrazine-8-carbothioamide] | 9 ± 1 µM | 8 ± 1 µM | 31 ± 4 µM | – | –

Source: patent US12234240B2, “Substituted imidazo[5,1-d][1,2,3,5]tetrazines for the treatment of cancer” (The Board of Trustees of the University of Illinois, priority 2018, dated 2025)
